In PubChem BioAssay (NCI) one finds TGI data, which are given here for eight compounds.

Each structure is given as a SMILES string.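 Cultured in 96-well plates, cells were exposed to test compound for 48 hours across five concentrations. The concentration for full growth arrest is given as TGI.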 Some results are limits rather than exact numbers.

Test systems include UACC-62 melanoma; SK-MEL-2 melanoma; OVCAR-5 ovarian; COLO 205 colon; TK-10 renal; MOLT-4 leukemia; MCF7 breast; DU-145 prostate; SNB-19 CNS; HCC-2998 colon; HCT-15 colon; UACC-257 melanoma; BT-549 breast; A549 NSCLC; U251 CNS; 786-0 renal; SNB-75 CNS; A498 renal; NCI/ADR-RES ovarian.
Holding throughout (assay): inhibition of tumour cell growth, NCI panel, 48 h

On to `CN1CCN(C(=S)N(C(=O)c2ccc(Cl)cc2)c2ccccc2)CC1`, for which the TGI with UACC-62 melanoma, in the assay with SK-MEL-2 melanoma, with OVCAR-5 ovarian, in the assay on COLO 205 colon, in the assay on TK-10 renal and in the assay with MOLT-4 leukemia was above 100 µM throughout. The TGI in the assay with MCF7 breast, with DU-145 prostate, in the assay on SNB-19 CNS, with HCC-2998 colon, with HCT-15 colon and with UACC-257 melanoma was above 100 µM throughout. Moreover, the TGI in the assay with BT-549 breast, with A549 NSCLC, in the assay on U251 CNS, in the assay on 786-0 renal and in the assay with SNB-75 CNS was above 100 µM each time.

As for `OCCOCCN1CCN(CCCN2c3ccccc3Sc3ccc(C(F)(F)F)cc32)CC1`, the TGI in the assay with UACC-62 melanoma worked out at 19.5 µM; with SK-MEL-2 melanoma, 34.7 µM; in the assay with OVCAR-5 ovarian it was 27.3 µM; with COLO 205 colon, 3.57 µM; in the assay on TK-10 renal, 24.1 µM; with MOLT-4 leukemia it was 29.8 µM. The TGI in the assay with MCF7 breast is 28.3 µM; in the assay on DU-145 prostate, 27.6 µM; in the assay with SNB-19 CNS, 27.8 µM; in the assay with HCC-2998 colon it was 13 µM; with A498 renal it was 22.6 µM; in the assay on HCT-15 colon, 38.3 µM. In addition, the TGI with UACC-257 melanoma was 18.3 µM; in the assay with BT-549 breast, 35.4 µM; in the assay on A549 NSCLC, 27.1 µM; in the assay on U251 CNS, 24.7 µM; with 786-0 renal, 31.3 µM; with SNB-75 CNS it was 13.6 µM.

Take `C=C(CCOC)CCC1CCCCC(=C)[C@H]1OC(C)=O` (stereo partly drawn): the TGI with UACC-62 melanoma, in the assay with SK-MEL-2 melanoma, with OVCAR-5 ovarian, with COLO 205 colon, in the assay with TK-10 renal and with MOLT-4 leukemia was above 100 µM each time. Also, the TGI with MCF7 breast, in the assay on DU-145 prostate, in the assay on SNB-19 CNS, in the assay on A498 renal, in the assay on HCT-15 colon and in the assay on UACC-257 melanoma was above 100 µM in each case. In addition, the TGI in the assay on A549 NSCLC, in the assay on U251 CNS, in the assay on 786-0 renal, in the assay with SNB-75 CNS and with NCI/ADR-RES ovarian was above 100 µM throughout.

With `O=c1ccn2n1Cc1ccccc1C2`, the TGI in the assay with UACC-62 melanoma, in the assay with SK-MEL-2 melanoma, in the assay on OVCAR-5 ovarian, with COLO 205 colon, in the assay on TK-10 renal and in the assay with MOLT-4 leukemia was above 100 µM throughout. Besides, the TGI in the assay on DU-145 prostate, with SNB-19 CNS, in the assay on HCC-2998 colon, in the assay with A498 renal, with HCT-15 colon and in the assay on UACC-257 melanoma was above 100 µM throughout. In addition, the TGI with A549 NSCLC, with U251 CNS, in the assay on 786-0 renal and in the assay on NCI/ADR-RES ovarian was above 100 µM each time.

Turning to `CC1=NN(c2cccc(Cl)c2)C(=N/c2nc3ccccc3s2)/C1=C\c1ccc(Cl)cc1`, the TGI in the assay on SK-MEL-2 melanoma is 34.2 µM; in the assay on OVCAR-5 ovarian it was 40.4 µM; with TK-10 renal it was 64.3 µM; with MOLT-4 leukemia, 73.7 µM; in the assay on MCF7 breast it was 65.3 µM; in the assay on DU-145 prostate it was above 100 µM. For the same compound, the TGI with HCC-2998 colon stood at 31 µM; in the assay with A498 renal, 43.9 µM; with HCT-15 colon, 28.9 µM; in the assay on UACC-257 melanoma it was 51.2 µM; in the assay on U251 CNS it was 28.7 µM; in the assay on 786-0 renal, 34 µM. For the same compound, the TGI in the assay on SNB-75 CNS is above 100 µM; with NCI/ADR-RES ovarian it was 50.7 µM.

For `COC(=O)C1=C(C)C(=O)[C@]23C(CCCC[C@H]12)C(=O)[C@H](C(=O)OC)C3C` (stereo partly drawn), the TGI with UACC-62 melanoma, with OVCAR-5 ovarian, in the assay on COLO 205 colon, with TK-10 renal, with MOLT-4 leukemia and with MCF7 breast was above 100 µM in each case. Also, the TGI in the assay on DU-145 prostate, in the assay with SNB-19 CNS, in the assay with HCC-2998 colon, in the assay with HCT-15 colon, in the assay with UACC-257 melanoma and in the assay on BT-549 breast was above 100 µM throughout. In addition, the TGI in the assay on A549 NSCLC, in the assay on U251 CNS, in the assay with 786-0 renal and in the assay with NCI/ADR-RES ovarian was above 100 µM each time.

On to `CN1Cc2cc3cc4c(cc3nc2N(C)C1)OCCO4`, for which the TGI with UACC-62 melanoma, with SK-MEL-2 melanoma, in the assay on OVCAR-5 ovarian, in the assay with COLO 205 colon, in the assay on TK-10 renal and in the assay with MOLT-4 leukemia was above 100 µM each time. Besides, the TGI in the assay with MCF7 breast, in the assay on SNB-19 CNS, with HCC-2998 colon, in the assay with A498 renal, with HCT-15 colon and in the assay with UACC-257 melanoma was above 100 µM each time. In addition, the TGI with BT-549 breast, with A549 NSCLC, in the assay with U251 CNS, with 786-0 renal, with SNB-75 CNS and with NCI/ADR-RES ovarian was above 100 µM throughout.

Turning to `O=c1[nH]nc(-c2ccccc2)n1Nc1ccccc1`, the TGI with UACC-62 melanoma, in the assay with SK-MEL-2 melanoma, in the assay with OVCAR-5 ovarian, in the assay on COLO 205 colon, in the assay on TK-10 renal and in the assay on MOLT-4 leukemia was above 100 µM in each case. Further, the TGI in the assay with DU-145 prostate, in the assay with SNB-19 CNS, with HCC-2998 colon, in the assay with A498 renal, in the assay on HCT-15 colon and in the assay with UACC-257 melanoma was above 100 µM each time. Moreover, the TGI in the assay on A549 NSCLC, in the assay with U251 CNS, in the assay on 786-0 renal, in the assay on SNB-75 CNS and in the assay on NCI/ADR-RES ovarian was above 100 µM each time.
